Measured values reported in PubChem BioAssay AID1963840 (Molecular Pharmacology Branch, DTP, NCI, 2024).

Tested on: 695427-040-R-J1-PDC complex spheroid viability
Assay: Anticancer human tumor 695427-040-R-J1-PDC patient-derived colon adenocarcinoma cell line growth inhibition [POLQ]
Conditions: for IC50: curve of first compound; for viability, T/C: stronger effect = lower value
Method in brief: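 Patient-derived tumour cells were co-cultured with HUVEC and mesenchymal stem cells as multicellular spheroids at 37 °C. They were treated with POLQ inhibitors (novobiocin, ART-558, RP6685) alone or combined with other agents. Top concentrations were at or near clinical Cmax (otherwise 10 microM; SN-38 at 1 microM), decreasing in half-log steps.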

[1] = second compound 0.0316 µM, first compound 0.0316 µM
[2] = second compound 0.0316 µM, first compound 0.1 µM
[3] = second compound 0.0316 µM, first compound 0.316 µM
[4] = second compound 0.0316 µM, first compound 1 µM
[5] = second compound 0.0316 µM, first compound 3.16 µM
[6] = second compound 0.0316 µM, first compound 10 µM
[7] = second compound 0.1 µM, first compound 0.0316 µM
[8] = second compound 0.1 µM, first compound 0.1 µM
[9] = second compound 0.1 µM, first compound 0.316 µM
[10] = second compound 0.1 µM, first compound 1 µM
[11] = second compound 0.1 µM, first compound 3.16 µM
[12] = second compound 0.1 µM, first compound 10 µM
[13] = second compound 0.316 µM, first compound 0.0316 µM
[14] = second compound 0.316 µM, first compound 0.1 µM
[15] = second compound 0.316 µM, first compound 0.316 µM
[16] = second compound 0.316 µM, first compound 1 µM
[17] = second compound 0.316 µM, first compound 3.16 µM
[18] = second compound 0.316 µM, first compound 10 µM
[19] = second compound 1 µM, first compound 0.0316 µM
[20] = second compound 1 µM, first compound 0.1 µM
[21] = second compound 1 µM, first compound 0.316 µM
[22] = second compound 1 µM, first compound 1 µM
[23] = second compound 1 µM, first compound 3.16 µM
[24] = second compound 1 µM, first compound 10 µM
[25] = second compound 3.16 µM, first compound 0.0316 µM
[26] = second compound 3.16 µM, first compound 0.1 µM
[27] = second compound 3.16 µM, first compound 0.316 µM
[28] = second compound 3.16 µM, first compound 1 µM
[29] = second compound 3.16 µM, first compound 3.16 µM
[30] = second compound 3.16 µM, first compound 10 µM
[31] = second compound 10 µM, first compound 0.0316 µM
[32] = second compound 10 µM, first compound 0.1 µM
[33] = second compound 10 µM, first compound 0.316 µM
[34] = second compound 10 µM, first compound 1 µM
[35] = second compound 10 µM, first compound 3.16 µM
[36] = second compound 10 µM, first compound 10 µM
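Further: spheroids exposed to compounds for seven days.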
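Wherever viability, T/C is given: 100% = DMSO vehicle control viability.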

C#Cc1c(F)ccc2cc(O)cc(-c3ncc4c(N5CC6CCC(C5)N6)nc(OCC56CCCN5CC(F)C6)nc4c3F)c12 (stereo not given) + COC1C(OC(N)=O)C(O)C(Oc2ccc3c(O)c(NC(=O)c4ccc(O)c(CC=C(C)C)c4)c(=O)oc3c2C)OC1(C)C
IC50 (second compound 0.0316 µM): > 10 µM
IC50 (second compound 0.1 µM): > 10 µM
IC50 (second compound 0.316 µM): > 10 µM
IC50 (second compound 1 µM): > 10 µM
IC50 (second compound 3.16 µM): > 10 µM
IC50 (second compound 10 µM): > 10 µM
viability, T/C [1]: 113%
viability, T/C [2]: 99.8%
viability, T/C [3]: 108%
viability, T/C [4]: 107%
viability, T/C [5]: 97.3%
viability, T/C [6]: 96.5%
viability, T/C [7]: 110%
viability, T/C [8]: 97.6%
viability, T/C [9]: 105%
viability, T/C [10]: 99.9%
viability, T/C [11]: 102%
viability, T/C [12]: 84.7%
viability, T/C [13]: 107%
viability, T/C [14]: 101%
viability, T/C [15]: 98.2%
viability, T/C [16]: 99.2%
viability, T/C [17]: 95%
viability, T/C [18]: 90%
viability, T/C [19]: 101%
viability, T/C [20]: 97.9%
viability, T/C [21]: 108%
viability, T/C [22]: 97.1%
viability, T/C [23]: 97.1%
viability, T/C [24]: 91%
viability, T/C [25]: 105%
viability, T/C [26]: 109%
viability, T/C [27]: 98.7%
viability, T/C [28]: 94.8%
viability, T/C [29]: 104%
viability, T/C [30]: 90.7%
viability, T/C [31]: 107%
viability, T/C [32]: 104%
viability, T/C [33]: 104%
viability, T/C [34]: 95.6%
viability, T/C [35]: 101%
viability, T/C [36]: 80.4%

CC1COCCN1c1cc(C2(O)CC3CCC(C2)O3)c2cnn(-c3ccn[nH]3)c2n1 (stereo not given) + COC1C(OC(N)=O)C(O)C(Oc2ccc3c(O)c(NC(=O)c4ccc(O)c(CC=C(C)C)c4)c(=O)oc3c2C)OC1(C)C
IC50 (second compound 0.0316 µM): 3.94 µM
IC50 (second compound 0.1 µM): 4.71 µM
IC50 (second compound 0.316 µM): 5.84 µM
IC50 (second compound 1 µM): 4.12 µM
IC50 (second compound 3.16 µM): 4.5 µM
IC50 (second compound 10 µM): 4.12 µM
viability, T/C [1]: 105%
viability, T/C [2]: 86.8%
viability, T/C [3]: 75.3%
viability, T/C [4]: 64.9%
viability, T/C [5]: 50.9%
viability, T/C [6]: 41.9%
viability, T/C [7]: 116%
viability, T/C [8]: 88.6%
viability, T/C [9]: 79.1%
viability, T/C [10]: 61.5%
viability, T/C [11]: 52.6%
viability, T/C [12]: 44.9%
viability, T/C [13]: 99.9%
viability, T/C [14]: 84.7%
viability, T/C [15]: 83.7%
viability, T/C [16]: 71.2%
viability, T/C [17]: 54.3%
viability, T/C [18]: 44.6%
viability, T/C [19]: 97.9%
viability, T/C [20]: 91%
viability, T/C [21]: 75.9%
viability, T/C [22]: 64%
viability, T/C [23]: 51%
viability, T/C [24]: 45%
viability, T/C [25]: 102%
viability, T/C [26]: 91.2%
viability, T/C [27]: 80%
viability, T/C [28]: 62.6%
viability, T/C [29]: 52.4%
viability, T/C [30]: 45.3%
viability, T/C [31]: 129%
viability, T/C [32]: 91.8%
viability, T/C [33]: 77.4%
viability, T/C [34]: 63.9%
viability, T/C [35]: 50.3%
viability, T/C [36]: 44.6%

CCc1cc2c(N3CCc4c(cc(Cn5ccnc5)cc4-c4cn(C)nc4C(F)(F)F)C3=O)cc(C)nc2c(OC)n1 + COC1C(OC(N)=O)C(O)C(Oc2ccc3c(O)c(NC(=O)c4ccc(O)c(CC=C(C)C)c4)c(=O)oc3c2C)OC1(C)C
IC50 (second compound 0.0316 µM): > 10 µM
IC50 (second compound 0.1 µM): > 10 µM
IC50 (second compound 0.316 µM): > 10 µM
IC50 (second compound 1 µM): > 10 µM
IC50 (second compound 3.16 µM): > 10 µM
IC50 (second compound 10 µM): > 10 µM
viability, T/C [1]: 106%
viability, T/C [2]: 103%
viability, T/C [3]: 111%
viability, T/C [4]: 107%
viability, T/C [5]: 108%
viability, T/C [6]: 99.1%
viability, T/C [7]: 114%
viability, T/C [8]: 104%
viability, T/C [9]: 105%
viability, T/C [10]: 96.5%
viability, T/C [11]: 111%
viability, T/C [12]: 117%
viability, T/C [13]: 107%
viability, T/C [14]: 112%
viability, T/C [15]: 106%
viability, T/C [16]: 109%
viability, T/C [17]: 110%
viability, T/C [18]: 97.8%
viability, T/C [19]: 108%
viability, T/C [20]: 108%
viability, T/C [21]: 105%
viability, T/C [22]: 101%
viability, T/C [23]: 120%
viability, T/C [24]: 99.3%
viability, T/C [25]: 117%
viability, T/C [26]: 109%
viability, T/C [27]: 113%
viability, T/C [28]: 105%
viability, T/C [29]: 115%
viability, T/C [30]: 97.3%
viability, T/C [31]: 116%
viability, T/C [32]: 118%
viability, T/C [33]: 110%
viability, T/C [34]: 109%
viability, T/C [35]: 117%
viability, T/C [36]: 122%

O=C(Nc1ccc(O)c(NS(=O)(=O)c2ccc(F)cc2)c1)c1ccc(-c2ccccc2)cc1 + COC1C(OC(N)=O)C(O)C(Oc2ccc3c(O)c(NC(=O)c4ccc(O)c(CC=C(C)C)c4)c(=O)oc3c2C)OC1(C)C
IC50 (second compound 0.0316 µM): > 10 µM
IC50 (second compound 0.1 µM): > 10 µM
IC50 (second compound 0.316 µM): > 10 µM
IC50 (second compound 1 µM): > 10 µM
IC50 (second compound 3.16 µM): > 10 µM
IC50 (second compound 10 µM): > 10 µM
viability, T/C [1]: 104%
viability, T/C [2]: 97.7%
viability, T/C [3]: 105%
viability, T/C [4]: 103%
viability, T/C [5]: 103%
viability, T/C [6]: 89.3%
viability, T/C [7]: 116%
viability, T/C [8]: 99.9%
viability, T/C [9]: 106%
viability, T/C [10]: 102%
viability, T/C [11]: 103%
viability, T/C [12]: 95.8%
viability, T/C [13]: 103%
viability, T/C [14]: 103%
viability, T/C [15]: 110%
viability, T/C [16]: 105%
viability, T/C [17]: 104%
viability, T/C [18]: 104%
viability, T/C [19]: 110%
viability, T/C [20]: 107%
viability, T/C [21]: 107%
viability, T/C [22]: 106%
viability, T/C [23]: 108%
viability, T/C [24]: 90.8%
viability, T/C [25]: 108%
viability, T/C [26]: 101%
viability, T/C [27]: 102%
viability, T/C [28]: 110%
viability, T/C [29]: 115%
viability, T/C [30]: 89.7%
viability, T/C [31]: 104%
viability, T/C [32]: 100%
viability, T/C [33]: 112%
viability, T/C [34]: 105%
viability, T/C [35]: 114%
viability, T/C [36]: 88.3%

COc1cccc2c1C(=O)c1c(O)c3c(c(O)c1C2=O)CC(O)(C(=O)CO)CC3OC1CC(N)C(O)C(C)O1 (stereo not given) + Cc1cccc(N(C)C(=O)C2C(O)CCN2c2nc(C)cc(C(F)(F)F)c2C#N)c1
IC50 (second compound 0.0316 µM): > 10 µM
IC50 (second compound 0.1 µM): > 10 µM
IC50 (second compound 0.316 µM): > 10 µM
IC50 (second compound 1 µM): > 10 µM
IC50 (second compound 3.16 µM): 8.57 µM
IC50 (second compound 10 µM): 4.41 µM
viability, T/C [1]: 97.7%
viability, T/C [2]: 96.5%
viability, T/C [3]: 89.7%
viability, T/C [4]: 75.1%
viability, T/C [5]: 67.7%
viability, T/C [6]: 51%
viability, T/C [7]: 105%
viability, T/C [8]: 88.3%
viability, T/C [9]: 95.6%
viability, T/C [10]: 69%
viability, T/C [11]: 66.4%
viability, T/C [12]: 55.9%
viability, T/C [13]: 103%
viability, T/C [14]: 91.8%
viability, T/C [15]: 89.1%
viability, T/C [16]: 72.1%
viability, T/C [17]: 78.6%
viability, T/C [18]: 55.7%
viability, T/C [19]: 97.5%
viability, T/C [20]: 83.1%
viability, T/C [21]: 87.3%
viability, T/C [22]: 75.2%
viability, T/C [23]: 67.5%
viability, T/C [24]: 53.9%
viability, T/C [25]: 96.6%
viability, T/C [26]: 87.9%
viability, T/C [27]: 83.3%
viability, T/C [28]: 75.7%
viability, T/C [29]: 64.9%
viability, T/C [30]: 46.8%
viability, T/C [31]: 81.6%
viability, T/C [32]: 78.9%
viability, T/C [33]: 73.3%
viability, T/C [34]: 57.7%
viability, T/C [35]: 56.4%
viability, T/C [36]: 41.8%
